{"source": "patent US8975015B2", "about": "“Antimicrobial compounds” (priority 2009, dated 2015)", "key": {"[1]": {"test_system": "Mycobacterium tuberculosis (replicating TB)", "test": "microbe, parasite or virus in culture", "format": "cell-based", "conditions": "Mycobacterium tuberculosis, replicating TB, read-out: MABA MIC"}, "[2]": {"test_system": "non-replicating TB", "test": "microbe, parasite or virus in culture", "format": "cell-based, Mycobacterium tuberculosis", "conditions": "Mycobacterium tuberculosis, read-out: LORA MIC"}, "[3]": {"test_system": "M. smegmatis", "test": "MIC against M. smegmatis", "format": "cell-based", "conditions": "Mycolicibacterium smegmatis"}, "[4]": {"conditions": "human, microsomes"}, "[5]": {"conditions": "mouse, microsomes"}, "[6]": {"test_system": "cultured kidney cells from the African Green monkey", "test": "cells", "format": "cell-based", "conditions": "Chlorocebus sabaeus"}, "[7]": {"format": "in vitro ADME", "conditions": "simulated gi fluid"}, "[8]": {"format": "in vitro ADME", "method": "Compound P1 was also tested for stability in simulated intestinal fluid."}}, "note": "Read-outs that look alike come from different tables or passages of the source."}
{"smiles": "O=C1C=Cc2nocc2/C1=C1/Nc2cc(Cl)ccc2C1=O", "note": "[Example 2, 4-(6-chloro-3-oxoindolin-2-ylidene)benzo[c]isoxazol-5(4H)-one]", "values": [{"measurement": "MIC", "setting": "[1]; 8-0.03 μM test concentration", "value": 1.9, "unit": "µM"}, {"measurement": "MIC", "setting": "[1]; 32-0.2 μM test concentration", "value": 1.92, "unit": "µM"}]}
{"smiles": "O=C1C=Cc2nocc2/C1=C1/Nc2ccc(Cl)cc2C1=O", "note": "[Example 3, 4-(5-chloro-3-oxoindolin-2-ylidene)benzo[c]isoxazol-5(4H)-one]", "values": [{"measurement": "MIC", "setting": "[2]; non-replicating TB", "value": 0.83, "unit": "µM"}, {"measurement": "MIC", "setting": "[1]; 8-0.03 μM test concentration", "value": 0.82, "unit": "µM"}, {"measurement": "MIC", "setting": "[1]; 32-0.2 μM test concentration", "value": 0.93, "unit": "µM"}]}
{"smiles": "O=C1C=Cc2nocc2/C1=C1/Nc2ccccc2C1=O", "note": "[Example P1, 4-(3-oxoindolin-2-ylidene)benzo[c]isoxazol-5(4H)-one]", "values": [{"measurement": "MIC", "setting": "[3]", "value": 4.05, "unit": "mg/L"}, {"measurement": "half-life", "setting": "[4]", "value": "about 7 or 8 minutes"}, {"measurement": "half-life", "setting": "[5]", "value": "about 3 or 4 minutes"}, {"measurement": "IC50", "setting": "[6]; African Green monkey kidney cells", "value": "> 50", "unit": "mg/L"}, {"measurement": "IC50", "setting": "[6]; Table 7, reaction products of T4MO isoform I100V with feedstock", "value": 20.8, "unit": "mg/L"}, {"measurement": "% P1 remaining", "setting": "[7]; 0 h", "value": 100, "unit": "%"}, {"measurement": "% P1 remaining", "setting": "[7]; 5 min", "value": 99.2, "unit": "%"}, {"measurement": "% P1 remaining", "setting": "[7]; 25 min", "value": 99.6, "unit": "%"}, {"measurement": "% P1 remaining", "setting": "[7]; 0.75 h", "value": 101.3, "unit": "%"}, {"measurement": "% P1 remaining", "setting": "[7]; 65 min", "value": 99.6, "unit": "%"}, {"measurement": "% P1 remaining", "setting": "[7]; 80 min", "value": 97.0, "unit": "%"}, {"measurement": "% P1 remaining", "setting": "[7]; 100 min", "value": 101.6, "unit": "%"}, {"measurement": "% P1 remaining", "setting": "[7]; 2 h", "value": 102.1, "unit": "%"}, {"measurement": "% P1 remaining", "setting": "[7]; 140 min", "value": 100.2, "unit": "%"}, {"measurement": "MIC", "setting": "[2]; non-replicating TB", "value": 0.48, "unit": "µM"}, {"measurement": "% P1", "setting": "[8]; 0 min", "value": 100, "unit": "%"}, {"measurement": "% P1", "setting": "[8]; 5 min", "value": 99.9, "unit": "%"}, {"measurement": "% P1", "setting": "[8]; 25 min", "value": 95.4, "unit": "%"}, {"measurement": "% P1", "setting": "[8]; 45 min", "value": 97.7, "unit": "%"}, {"measurement": "% P1", "setting": "[8]; 65 min", "value": 92.1, "unit": "%"}, {"measurement": "% P1", "setting": "[8]; 85 min", "value": 86.2, "unit": "%"}, {"measurement": "% P1", "setting": "[8]; 125 min", "value": 86.8, "unit": "%"}, {"measurement": "% P1", "setting": "[8]; 145 min", "value": 83.5, "unit": "%"}, {"measurement": "MIC", "setting": "[1]", "value": 0.49, "unit": "µM"}]}
{"smiles": "NNC(=O)c1ccncc1", "note": "[Isoniazid, reference compound]", "values": [{"measurement": "MIC", "setting": "[2]", "value": "> 128", "unit": "µM"}, {"measurement": "MIC", "setting": "[1]", "value": 0.56, "unit": "µM"}]}
{"smiles": "CO[C@H]1/C=C/O[C@@]2(C)Oc3c(C)c(O)c4c(O)c(c(/C=N/N5CCN(C)CC5)c(O)c4c3C2=O)NC(=O)/C(C)=C\\C=C\\[C@H](C)[C@H](O)[C@@H](C)[C@@H](O)[C@@H](C)[C@H](OC(C)=O)[C@@H]1C", "note": "[Rifampin, reference compound]", "values": [{"measurement": "MIC", "setting": "[2]", "value": 1.34, "unit": "µM"}, {"measurement": "MIC", "setting": "[1]", "value": 0.06, "unit": "µM"}]}
